Test results published in ChEMBL document CHEMBL1201862, “PubChem BioAssay data set” (2004).
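Exposure lasted 48 hours, with cells grown in 96-well plates and compounds tested at five concentrations. GI50 marks 50% less growth.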 Activity calls are given as the source filed them. Cut-off read from the data, not from the text of the source: active = GI50 up to about 1.1 µM and inactive = higher.

Experiments:
Experiment in all cases: growth of human tumour cells (NCI), 48 h
SNB-19 = test system: SNB-19
KM12 = test system: KM12
PC-3 = test system: PC-3
HL-60 = test system: HL-60
HT-29 = test system: HT-29
UACC-257 = test system: UACC-257
786-0 = test system: 786-0
MDA-N = test system: MDA-N
NCI-H460 = test system: NCI-H460
SK-MEL-2 = test system: SK-MEL-2
TK-10 = test system: TK-10
HOP-92 = test system: HOP-92
SF-295 = test system: SF-295
IGROV-1 = test system: IGROV-1
SR = test system: SR
HCC 2998 = test system: HCC 2998
SK-MEL-5 = test system: SK-MEL-5
RXF 393 = test system: RXF 393
M14 = test system: M14
UACC-62 = test system: UACC-62

Row | SMILES | GI50 (SNB-19) | GI50 (KM12) | GI50 (PC-3) | GI50 (HL-60) | GI50 (HT-29) | GI50 (UACC-257) | GI50 (786-0) | GI50 (MDA-N) | GI50 (NCI-H460) | GI50 (SK-MEL-2) | GI50 (TK-10) | GI50 (HOP-92) | GI50 (SF-295) | GI50 (IGROV-1) | GI50 (SR) | GI50 (HCC 2998) | GI50 (SK-MEL-5) | GI50 (RXF 393) | GI50 (M14) | GI50 (UACC-62)
1 | COC1CC(O[C@H]2CC[C@@]3(C)[C@@H](CC[C@]4(O)[C@@H]3CC[C@]3(C)[C@@H](C(C)=O)[C@H](OC(=O)CC(C)C)[C@@H](OC(=O)c5ccccc5)[C@@]34O)C2)OC(C)C1OC1CC(OC)C(OC2OC(C)C(O)C(OC)C2O)C(C)O1 (stereo partly drawn) | > 25 µM (inactive) | 12.9 µM (inactive) | 11.7 µM (inactive) | 7.19 µM (inactive) | 11.9 µM (inactive) | > 25 µM (inactive) | > 25 µM (inactive) | > 25 µM (inactive) | 9.53 µM (inactive) | > 25 µM (inactive) | 18.3 µM (inactive) | 6.55 µM (inactive) | 16.9 µM (inactive) | 11.6 µM (inactive) | 11.3 µM (inactive) | 9.2 µM (inactive) | 17.8 µM (inactive) | > 25 µM (inactive) | 16.1 µM (inactive) | –
2 | C[C@@H](NC(=O)[C@@H]1C[C@]1(C)CO)c1cccc2ccccc12 | > 100 µM (inactive) | > 100 µM (inactive) | > 100 µM (inactive) | – | > 100 µM (inactive) | > 100 µM (inactive) | > 100 µM (inactive) | > 100 µM (inactive) | > 100 µM (inactive) | > 100 µM (inactive) | > 100 µM (inactive) | > 100 µM (inactive) | > 100 µM (inactive) | > 100 µM (inactive) | > 100 µM (inactive) | > 100 µM (inactive) | > 100 µM (inactive) | > 100 µM (inactive) | > 100 µM (inactive) | > 100 µM (inactive)
3 | Cc1ccc(C2=CC(=O)/C(=C\C(=O)c3ccc(Cl)cc3)O2)cc1 | 49.2 µM (inactive) | 22.8 µM (inactive) | 2.43 µM (inactive) | 0.902 µM (active) | 4.14 µM (inactive) | 0.1 µM (active) | 9.95 µM (inactive) | 3.2 µM (inactive) | > 10 µM (inactive) | – | 3.23 µM (inactive) | 14.1 µM (inactive) | – | 16.2 µM (inactive) | 1.42 µM (inactive) | 27.4 µM (inactive) | 14.5 µM (inactive) | 4.6 µM (inactive) | 18.3 µM (inactive) | 11.6 µM (inactive)
4 | C=C1CC[C@@H]2[C@](C)(COC(=O)CCC(=O)O)CCC[C@@]2(C)[C@@H]1CCC1=CC(=O)OC1 | > 100 µM (inactive) | > 100 µM (inactive) | > 100 µM (inactive) | > 100 µM (inactive) | > 100 µM (inactive) | > 100 µM (inactive) | > 100 µM (inactive) | > 100 µM (inactive) | – | > 100 µM (inactive) | > 100 µM (inactive) | > 100 µM (inactive) | > 100 µM (inactive) | > 100 µM (inactive) | > 10 µM (inactive) | > 100 µM (inactive) | 42.9 µM (inactive) | > 100 µM (inactive) | > 100 µM (inactive) | > 100 µM (inactive)
5 | CC12CCCCC1=[N+]([O-])C(C)(C)N2O (stereo not drawn) | > 100 µM (inactive) | > 100 µM (inactive) | > 100 µM (inactive) | – | > 100 µM (inactive) | > 100 µM (inactive) | > 100 µM (inactive) | > 100 µM (inactive) | > 100 µM (inactive) | > 100 µM (inactive) | > 100 µM (inactive) | > 100 µM (inactive) | > 100 µM (inactive) | > 100 µM (inactive) | > 100 µM (inactive) | > 100 µM (inactive) | > 100 µM (inactive) | > 100 µM (inactive) | > 100 µM (inactive) | > 100 µM (inactive)
6 | CC1CCC2c3c([nH]c4ccccc34)C3C(=O)N(C4CCCCC4)C(=O)C3C2C1 (stereo not drawn) | 16.4 µM (inactive) | – | 38.3 µM (inactive) | > 100 µM (inactive) | > 100 µM (inactive) | 46.3 µM (inactive) | 6.85 µM (inactive) | 33.3 µM (inactive) | 26 µM (inactive) | 17.4 µM (inactive) | 13.4 µM (inactive) | 21 µM (inactive) | 16.3 µM (inactive) | 17.2 µM (inactive) | 29.2 µM (inactive) | > 100 µM (inactive) | 17.9 µM (inactive) | 13.7 µM (inactive) | 23.7 µM (inactive) | 12.2 µM (inactive)
7 | CCOC(=O)C1CCCc2sc(N)c(C#N)c21 (stereo not drawn) | > 100 µM (inactive) | > 100 µM (inactive) | > 100 µM (inactive) | > 100 µM (inactive) | > 100 µM (inactive) | > 100 µM (inactive) | > 100 µM (inactive) | > 100 µM (inactive) | > 100 µM (inactive) | > 100 µM (inactive) | > 100 µM (inactive) | 70.6 µM (inactive) | – | > 100 µM (inactive) | > 100 µM (inactive) | > 100 µM (inactive) | > 100 µM (inactive) | > 100 µM (inactive) | > 100 µM (inactive) | > 100 µM (inactive)
8 | CC(=O)Oc1cc2c[n+](C)c3c4cc(OC(C)=O)c(OC(C)=O)cc4ccc3c2cc1OC(C)=O | 2.3 µM (inactive) | 5.46 µM (inactive) | 4.07 µM (inactive) | – | 2.72 µM (inactive) | 14.5 µM (inactive) | 1.59 µM (inactive) | 5.51 µM (inactive) | 4.93 µM (inactive) | – | > 100 µM (inactive) | 4.32 µM (inactive) | 4.72 µM (inactive) | 2.49 µM (inactive) | 2.22 µM (inactive) | 9.23 µM (inactive) | 3.17 µM (inactive) | 0.168 µM (active) | 4.38 µM (inactive) | 3.97 µM (inactive)
9 | O=C(NNC(=S)Nc1ccc(Cl)cc1)c1cc(-c2ccccc2)nc2ccccc12 | 6.89 µM (inactive) | 4.49 µM (inactive) | 3.42 µM (inactive) | – | 8.73 µM (inactive) | 5.55 µM (inactive) | 4.71 µM (inactive) | 3.25 µM (inactive) | 6.22 µM (inactive) | 2.56 µM (inactive) | 7.19 µM (inactive) | 3.59 µM (inactive) | 2.52 µM (inactive) | 5.96 µM (inactive) | 2.21 µM (inactive) | 3.53 µM (inactive) | 3.73 µM (inactive) | 7.93 µM (inactive) | 4.97 µM (inactive) | 2.9 µM (inactive)
10 | c1ccc(-c2cc(-c3cc(-c4ccccn4)[nH]n3)n[nH]2)nc1 | > 100 µM (inactive) | > 100 µM (inactive) | > 100 µM (inactive) | 84.3 µM (inactive) | 38.8 µM (inactive) | > 100 µM (inactive) | 41.9 µM (inactive) | 77.3 µM (inactive) | 35.6 µM (inactive) | > 100 µM (inactive) | – | 77.8 µM (inactive) | 85.5 µM (inactive) | > 100 µM (inactive) | 17.6 µM (inactive) | 28.6 µM (inactive) | > 100 µM (inactive) | > 100 µM (inactive) | 30.8 µM (inactive) | > 100 µM (inactive)
11 | CN1C(=O)C(=CNc2ccccc2Cl)C(=O)N(C)C1=O | 23.8 µM (inactive) | > 100 µM (inactive) | 20.2 µM (inactive) | – | > 100 µM (inactive) | > 100 µM (inactive) | 18.5 µM (inactive) | > 100 µM (inactive) | 15.5 µM (inactive) | 19.2 µM (inactive) | > 100 µM (inactive) | > 100 µM (inactive) | 17.7 µM (inactive) | > 100 µM (inactive) | 19.4 µM (inactive) | 18.7 µM (inactive) | > 100 µM (inactive) | 15.1 µM (inactive) | 21.9 µM (inactive) | > 100 µM (inactive)
12 | CCOC(=O)/C=C/CCO[Si](C)(C)C(C)(C)C | > 100 µM (inactive) | > 100 µM (inactive) | > 100 µM (inactive) | – | > 100 µM (inactive) | > 100 µM (inactive) | > 100 µM (inactive) | > 100 µM (inactive) | > 100 µM (inactive) | > 100 µM (inactive) | > 100 µM (inactive) | > 100 µM (inactive) | > 100 µM (inactive) | > 100 µM (inactive) | > 100 µM (inactive) | > 100 µM (inactive) | > 100 µM (inactive) | > 100 µM (inactive) | – | > 100 µM (inactive)
13 | Cc1cccc2nc(-c3ccccc3)cc(=O)n12 | > 100 µM (inactive) | > 100 µM (inactive) | 43.7 µM (inactive) | > 100 µM (inactive) | > 100 µM (inactive) | 91.8 µM (inactive) | > 100 µM (inactive) | > 100 µM (inactive) | > 100 µM (inactive) | – | 68.7 µM (inactive) | 61.7 µM (inactive) | > 100 µM (inactive) | 49.8 µM (inactive) | 87.5 µM (inactive) | > 100 µM (inactive) | 38.2 µM (inactive) | 51.8 µM (inactive) | > 100 µM (inactive) | 44.1 µM (inactive)
14 | COc1ccc(-c2sc(Br)c3c2C(=O)C2OC(=O)NC32)cc1OC (stereo not drawn) | > 100 µM (inactive) | > 100 µM (inactive) | > 100 µM (inactive) | > 100 µM (inactive) | > 100 µM (inactive) | > 100 µM (inactive) | > 100 µM (inactive) | > 100 µM (inactive) | > 100 µM (inactive) | > 100 µM (inactive) | > 100 µM (inactive) | > 100 µM (inactive) | > 100 µM (inactive) | > 100 µM (inactive) | > 100 µM (inactive) | – | > 100 µM (inactive) | > 100 µM (inactive) | > 100 µM (inactive) | > 100 µM (inactive)
